Legend:
miR-206 [1] = assay: qPCR of exosomal miR-206 from dissociated tibialis anterior muscles; assay type: in vivo, mdx mice; conditions: TSA-treated mdx muscle compared to untreated control
Protocol: Exosomes were purified from tibialis anterior gently dissociated in serum-free DMEM (24 h). Cell debris and organelles were eliminated by centrifugation at 2,000 g for 20 min and exosomes were isolated using TEIR.
For microRNA validation, Total exosomal RNA was extracted with Total Exosome RNA Protein Isolation Kit (#4478545, Invitrogen by Thermo Fisher Scientific) and was retro-transcribed using the Qiagen reverse transcription kit (miScript II RT Kit, #218161, Qiagen) and pre-amplified using (miScript PreAMP PCR Kit, #331451, Qiagen).
All the conditions are provided in the manufacturer protocol.
(§1) Of note, transgenic miR-206 upregulation has been exploited as tool for the treatment of DMD and other muscular disorders (Liu et al., 2012; Williams et al., 2009; Fry et al., 2017). […] The same pattern could be observed in mdx mice, in which an abundant miR-206 signal was detected in the interstitium of tibialis anterior muscles, overlapping with the immunofluorescence staining of the FAP's marker Sca-1 (FIG. 3H). […] We performed a quantitative assessment of exosomal miR-206, by isolating whole tibialis anterior (TA) muscles from TSA-treated mdx muscle or untreated control mdx mice, followed by gentle dissociation and exosome isolation.

miR-206 [2] = assay: miR-206 in situ hybridization of tibialis anterior sections; assay type: in vivo; conditions: young mdx mice (1.5 months of age)
Protocol: Animals were used at the specified age and treated for the indicated periods with daily intra peritoneal injections of Trichostatin A, TSA (0.6 mg/kg/day; #T8552, Sigma), dissolved in phospate-saline solution or in phospate-saline alone as vehicle control (CTR). Muscle injury was performed by intramuscular injection in Tibliais Anterior (TA) of Cardiotoxin—CTX− (10 μM, 10 mg/mL) (#L8102, Lotaxan Valence, France, http://www.latoxan.com), 3 days before mice sacrifice. […]
as §1

mdx muscles = assay: Regeneration, fibrosis and inflammation in mdx tibialis anterior after exosome injection or systemic TSA; assay type: in vivo, mdx mice; conditions: 21 days; exosomes intramuscular every 7 days or TSA daily intra-peritoneal
Protocol: Animals were used at the specified age and treated for the indicated periods with daily intra peritoneal injections of Trichostatin A, TSA (0.6 mg/kg/day; #T8552, Sigma), dissolved in phospate-saline solution or in phospate-saline alone as vehicle control (CTR). Muscle injury was performed by intramuscular injection in Tibliais Anterior (TA) of Cardiotoxin—CTX− (10 μM, 10 mg/mL) (#L8102, Lotaxan Valence, France, http://www.latoxan.com), 3 days before mice sacrifice.
FAPs-derived exosomes at a final concentration of 10 μg in 20 μL of PBS1x (0.5 ug/μl) (#14190-1444, Gibco by life technologies) and its vehicle of control (20 μl PBS1x) were injected 3 times in left TA of young C57BL6/mdx mice: every 7 days for 21 days.
For Masson Trichrome staining to analyze fibrotic tissue, muscle cryo-sections were fixed for 20′ at 56° C. in Bouin's Solution (#HT10132, L Sigma) and then stained in Working Weigert's Iron Hematoxilin solution for 5 min (#HT1079, Sigma), washed in running tap water for 5 min and stained in Biebrich Scarlet-Acid Fucsin for 5 min (#HT151, Sigma). Sections were rinsed in de-ionized water and re-fixed in freshly made Phosphomolybdic/Phosphotungstic/dH2O (1:1:2) acid solution for 8 min (#HT153, #HT152, Sigma), and then they are stained in Aniline Blue solution for 5 min (#HT154, Sigma) and in acid acetic 1% for 2 min (#27221, Sigma). The slides were dehydratated in ethanol (#02860, Sigma) and xilene (#X1040, Sigma) and mounted with EUKITT (#03989, Sigma), then visualized using a Nikon Eclipse 90i: collagen fibers are stained in blue, the nuclei stained in black and the muscle tissue is stained in red. miRNA in situ hybridization was performed as described by Pena (2009) in formaldehyde and carbodiimide (EDC)-fixed TA cryo-sections (0.16M 90 min at RT,_#25952-53-8, Merck KGaA). After washes with 0.2% glycine (#G8898, Sigma) and TBS, cryo-sections were acetylated using 0.1 M triethanolamine and 0.25% acetic anhydride for 25 min at RT (respectively #90275, #A6404, Sigma). This steps are followed by a pre-hybridization using 2× of SSC, 25% formamide (#F9037, Sigma); 0.2% Triton (#X100, Sigma) 30 min at RT and by the over night hybridization at 4° C. with the has-miR206 probe (10 pmol, #18100-01, exiqon) dissolved in a solution of 50% formamide, 250 μg/ml tRNA (#R1753, Sigma), 200 μg/ml SSDNA (#D7656, Sigma), 10% dextran sulphate (#D8906, Sigma) and 2× SSC. The hybridization was followed by specific washes with SSC to eliminate non specific binding of probe (5× SSC 5 min at RT, 1× SSC 15 min at 45° C., 2% BSA in 0.2× SSC 15 min at 4° C., 2× SSC 5 min at RT, TNbuffer 10 min at RT and TNT buffer 15′ at RT) and by the incubation of cryo-section using anti-digoxigenin-ap fab fragments ( 1/100, #11093274910, Roche) dissolved in TNbuffer for 2 hours at RT. To reveal the miRNA probe specific binding cryo-sections, covered from light, were incubating over night at 4° C. with 0.375 mg/ml of NBT and 0.188 mg/ml BCIP dissolved in a solution of TMNbuffer (respectively #11383213001 and #11383221001, Roche).
For immunofluorescence analysis, cryo-sections and cells were fixed in 4% PFA for 10 min and permeabilized with 100% cold acetone (#32201, Sigma) for 6 min at −20° C. or 100% cold Methanol (#32213, Sigma) for 6 min at −20° or with 0.25% Triton for 15 min at RT. Muscle sections were blocked for 1 h with a solution containing 4% BSA (#A7030, Sigma) in PBS. […]

CC(/C=C/C(=O)NO)=C\[C@@H](C)C(=O)c1ccc(N(C)C)cc1 [TSA, Trichostatin A]
increase of miR-206 (miR-206 [1]): ~7 fold
amount of interstitial miR-206 signal associated with Sca-1 staining (miR-206 [2]): increased
embryonic-MyHC-positive myofibers (eMyHC) (mdx muscles): increase
fibers calibre, cross sectional area (CSA) (mdx muscles): increase
fibrosis (mdx muscles): reduce
inflammation (MPO) (mdx muscles): significant reduction
muscle fiber area fraction (MFAF) (mdx muscles): increase

— patent publication US20210268030A1, “FIBROADIPOGENIC PROGENITOR-DERIVED EXOSOMES FOR REGENERATION OF DYSTROPHIC MUSCLES” (EXOFIX S.R.L., priority 2018, published 2021)
